Reference: patent US20200054646A1, “USE OF PHENOTHIAZINE DERIVATIVE IN THE TREATMENT OF INFECTIOUS PURPURA OR PURPURA FULMINANS” (priority 2016, published 2020)

Columns and labels:
[1] = system: N. meningitidis 2C4.3 bacterial aggregates; experiment: microbe, parasite or virus in culture; assay type: cell-based, Neisseria meningitidis
Protocol: N. meningitidis 2C4.3 was grown in liquid culture at 10^7 CFU/ml for 2 h to form bacterial aggregates and were treated with increasing concentrations of Trifluoperazine (10 to 40 μM), Gentamicin (150 μg/ml) or cefotaxim (20 μg/ml) for 20 minutes and bacterial aggregates were immediately visualized using a phase-contrast microscope. […] (B) Quantification of the bacterial aggregation was performed using Image J software.
(§1) N. meningitidis 2C4.3 wild type strain and the isogenic derivative mutant PilT ([…]PilT) were grown in liquid culture at 10^7 CFU/ml for 2 h to form bacterial aggregates and then treated with 50 μM Trifluoperazine. Time lapse phase-contrast video microscopy was performed to visualize the effect on bacterial aggregates over time. Images were taken at the indicated time points of the video.
N. meningitidis 2C4.3 was grown in liquid culture at 10^7 CFU/ml for 2 h to form bacterial aggregates and were treated with 30 μM Trifluoperazine for 30 minutes to induce bacterial dispersion or PBS as a control. The medium was replaced to remove the Trifluoperazine and the reformation of bacterial aggregates were visualized overtime using a phase-contrast microscope.
FIG. 7. […] Bacteria were grown in suspension for 2 h then Phenothiazine derivatives were added at the indicated concentrations.
N. meninigitidis 2C4.3 strain was grown in suspension in wells of a 24 well plate, containing 1 ml of DMEM medium supplemented with 10% heat-inactivated fetal calf serum. After 2 h of growth, Trifluoperazine (or control vehicle) was added at various concentrations ranging from 10 to 40 μM for 20 min and the bacterial aggregates were visualized over time using a phase-contrast microscope.
N. meninigitidis 2C4.3 strain was grown in suspension in wells of a 24 well plate, containing 1 ml of DMEM medium supplemented with 10% heat-inactivated fetal calf serum. After 2 h of growth, various concentrations (0.5 to 80 μM) of phenothiazine-derivative compounds or control vehicle (PBS or DMSO) were added to the wells for 30 min and the bacterial aggregates were visualized using a phase-contrast microscope.
Were tested phenothiazine-derivative compounds of: • the Piperazine group: Trifluoperazine (Sigma #T8516), Fluphenazine (Sigma #F4765), Prochlorperazine (Sigma #P9178) Perphenazine (Sigma #P6402); • the Piperidine group: Thioridazine (Sigma #T9025) and Mesoridazin (Sigma #M4068); • the Aliphatic group: Chlorpromazine (Sigma #C8138), Promazine (Sigma #P6656), Triflupromazine (Sigma #1686003) and levomepromazine (Sigma #L0500000).

[2] = system: type IV pili of N. meningitidis 2C4.3 and isogenic PilT mutant; experiment: Aggregation and type IV pili of wild type and PilT mutant (phase-contrast and transmission electron microscopy); assay type: cell-based, Neisseria meningitidis
Protocol: as §1
N. meningitidis 2C4.3 wild type strain and the isogenic derivative mutant PilT ([…]PilT) were grown in liquid culture at 10^7 CFU/ml for 2 h to form bacterial aggregates and then treated with 50 μM Trifluoperazine for 15 minutes before analysis by transmission electron microscopy. Arrows point at bundles of type IV pili expressed at the bacterial surface.
N. meninigitidis 2C4.3 strain and the isogenic derivative mutant PilT, where the pilT gene was interrupted by an erythromycin-resistance cassette (Pujol et al., 1999), were grown in suspension in DMEM medium supplemented with 10% heat-inactivated fetal calf serum. PilT belongs to a highly conserved protein family homologous to AAA-type motor proteins and is proposed to cause the retraction of type IV pili by disassembling the pilin subunits at the base of the fiber (Morand et al., 2004). After 2 h of growth, Trifluoperazine (or control vehicle) was added at 50 μM for 20 min. The effect on bacterial aggregates were visualized over time using a phase-contrast microscope or the bacterial suspensions were fixed in 4% Paraformaldehyde for 10 min, centrifuged at 1000 rpm for 5 minutes and the bacterial pellets washed in PBS. After negative staining with 1% phosphotungstic acid, bacteria were analysed by transmission electron microscopy, using a JEOL 1011 microscope.

[3] = system: HBMECs infected with meningococci; experiment: PECAM-1 recruitment at bacterial adhesion sites in infected HBMEC; assay type: cell-based, human; conditions: 5 μM, 2 h infection
Protocol: (A) Monolayers of HBMECs were non-infected or infected for 2 h with meningococci and the effect on the localisation of the endothelial cell junction proteins PECAM-1 and […]-catenin was analysed by immunofluorescence analysis. Arrows point at PECAM-1 molecules recruited at bacterial adhesion sites (B) HBMECs were infected for 2 h with meningococci in the presence or in the absence of 5 μM Trifluoperazine and the effect on junctional PECAM-1 and on the endothelial cell cytoskeleton remodelling (Ezrin, Actin) was analysed by immunofluorescence analysis. (C) Quantification of Actin and PECAM-1 recruitment at sites of bacterial adhesion was performed using Image J software.
HDMECs were grown in their specific culture medium (Promocell #C-12210) and confluent monolayers were infected with 2C4.3. Briefly, bacteria were precultured in prewarmed cell culture medium for 1 h 30 min at 37° C. 5% CO2. The OD600 was adjusted to 0.1 and HDMECs were then overlaid with bacteria for 30 min (MOI of 100). Unbound bacteria were removed by three washes in cell culture media and infection was allowed to proceed for 1 h at 37° C. 5% CO2. Gentamicin was added at 150 μg/ml for 1 h, then after three washes in cell culture media, Trifluoperazine was applied where mentioned at 50 μM for 20 min. […] Quantifications were done using ImageJ software (NIH).

Row | SMILES | dispersion of bacterial aggregates formed in suspension ([1]; Gentamicin 150 μg/ml, 20 minutes) | surface expression of type IV pili, PilT mutant (TEM) ([2]; 50 μM) | type IV pili on bacterial surface, wild type 2C4.3 (TEM) ([2]; 50 μM for 30 minutes) | effect on aggregation of PilT mutant strain ([2]; 50 μM, PilT mutant unable to retract type IV pili) | reversibility of the effect on aggregation upon removal ([1]; 30 μM for 30 minutes, then medium replaced) | dispersion of bacterial aggregates pre-formed for two hours ([1]; 10 to 40 μM, 20 min) | concentration range of dose-dependent dispersion of aggregates ([1]; 20 min treatment, suspension) | EC80 ([1]; Neisseria meningitidis, 0.5 h, read-out: Concentration promoting efficient meningococcal dispersal (~80%)) | time after addition at which dispersion occurs ([1]; time lapse video microscopy, 50 μM) | PECAM-1 recruitment at bacterial adhesion sites [3] | bacterial colonization [3]
1 | CN[C@@H]1[C@@H](O)C(O[C@@H]2[C@@H](O)[C@H](O[C@H]3O[C@H]([C@@H](C)NC)CC[C@H]3N)[C@@H](N)C[C@H]2N)OC[C@]1(C)O (stereo partly drawn) [Gentamicin, (3R,4R,5R)-2-{[(1S,2S,3R,4S,6R)-4,6-diamino-3-{[(2R,3R,6S)-3-amino-6-[(1R)-1-(methylamino)ethyl]oxan-2-yl]oxy}-2-hydroxycyclohexyl]oxy}-5-methyl-4-(methylamino)oxane-3,5-diol] | did not significantly induce the dispersion |  |  |  |  |  |  |  |  |  | 
2 | CN1CCN(CCCN2c3ccccc3Sc3ccc(C(F)(F)F)cc32)CC1 [Trifluoperazine] |  | did not affect | no longer observed | no effect | reversible | induced their dispersion | 10 to 40 µM | 30 µM | 10 to 15 min | prevented PECAM-1 recruitment | did not affect
